From the supplement of paper PMC10307832

Experiments:
Test in all cases: relative viability (nuclei count vs DMSO), 5 days (fraction); higher = more cells survive
[1] = compound: Cn1nnc2c(C(N)=O)ncn2c1=O [Temozolomide] + CS(=O)(=O)N1CCN(Cc2cc3nc(-c4cccc5[nH]ncc45)nc(N4CCOCC4)c3s2)CC1 [Pictilisib] (partner 1 µM)
In short: (§1)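 Five library-drug doses in √10 steps were combined with a fixed anchor-drug dose, or a single drug was given alone, by pin tool to lung cancer cell lines in 1536-well plates the day after seeding. Nuclei were stained and counted after 5 days. Relative viability is the nuclei count in treated wells over that in vehicle wells, taken as the median of duplicate plates.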

AZD5582 + Phenformin = compound: C[C@@H](C(=O)N[C@@H](C1CCCCC1)C(=O)N2CCC[C@H]2C(=O)N[C@@H]3[C@@H](CC4=CC=CC=C34)OCC#CC#CCO[C@@H]5CC6=CC=CC=C6[C@@H]5NC(=O)[C@@H]7CCCN7C(=O)[C@H](C8CCCCC8)NC(=O)[C@H](C)NC)NC [AZD5582] + N=C(N)NC(=N)NCCc1ccccc1 [Phenformin] (partner 250 µM)
In short: as §1

[2] = compound: Cn1nnc2c(C(N)=O)ncn2c1=O [Temozolomide] + CC(=O)Nc1cccc(-n2c(=O)n(C3CC3)c(=O)c3c(Nc4ccc(I)cc4F)n(C)c(=O)c(C)c32)c1 [Trametinib] (partner 0.02 µM)
In short: as §1

[3] = compound: Cn1nnc2c(C(N)=O)ncn2c1=O [Temozolomide] + O=C(CCCCCCC(=O)Nc1ccccc1)NO [Vorinostat] (partner 1 µM)
In short: as §1

Cell Line	relative viability ([1]; first compound 0.2 µM)	relative viability ([1]; first compound 0.6325 µM)	relative viability ([1]; first compound 2 µM)	relative viability ([1]; first compound 6.325 µM)	relative viability ([1]; first compound 20 µM)	relative viability (AZD5582 + Phenformin; first compound 0.001581 µM)	relative viability (AZD5582 + Phenformin; first compound 0.005 µM)	relative viability (AZD5582 + Phenformin; first compound 0.01581 µM)	relative viability (AZD5582 + Phenformin; first compound 0.05 µM)	relative viability ([2]; first compound 0.2 µM)	relative viability ([2]; first compound 0.6325 µM)	relative viability ([2]; first compound 2 µM)	relative viability ([2]; first compound 6.325 µM)	relative viability ([2]; first compound 20 µM)	relative viability ([3]; first compound 0.2 µM)	relative viability ([3]; first compound 0.6325 µM)	relative viability ([3]; first compound 2 µM)	relative viability ([3]; first compound 6.325 µM)	relative viability ([3]; first compound 20 µM)
ChaGo-K-1	0.784	0.904	1.02	0.635	0.581	0.445	0.54	0.4	0.513	0.959	0.87	0.967	0.9	0.887	0.85	0.724	0.719	0.738	0.733
RERF-LC-KJ	0.625	0.564	0.557	0.501	0.467	–	–	0.35	0.197	0.788	0.815	0.763	0.845	0.826	0.602	0.7	0.756	0.646	0.663
SW 1573	0.595	0.517	0.517	0.483	0.428	0.394	0.466	0.37	0.499	0.688	0.504	0.56	0.583	0.474	0.794	1.04	1.08	0.803	0.633
NCI-H2347	0.624	0.863	0.861	0.649	0.502	0.356	0.352	0.38	0.239	0.26	0.291	0.28	0.289	0.244	0.476	0.668	0.674	0.629	0.635
NCI-H2126	0.475	0.554	0.489	0.511	0.457	0.489	0.567	0.497	0.512	0.561	0.588	0.624	0.555	0.623	0.632	0.761	0.817	0.752	0.624
SK-LU-1	0.688	0.62	0.544	0.295	0.281	0.362	0.342	0.508	0.279	0.534	0.487	0.44	0.382	0.361	0.89	0.769	0.713	0.505	0.421
NCI-H1437	0.474	0.539	0.502	0.521	0.44	0.251	0.279	0.254	0.365	0.539	0.544	0.561	0.594	0.565	0.748	0.748	0.915	0.831	0.92
LCLC-103H	0.614	0.523	0.816	0.509	0.62	0.328	0.316	0.272	0.269	0.725	0.624	0.686	0.678	0.617	0.943	0.814	0.881	0.732	0.762
NCI-H647	0.419	0.444	0.406	0.272	0.216	0.47	0.504	0.456	0.459	0.528	0.537	0.56	0.353	0.227	0.886	0.705	0.494	0.304	0.153
LC-2-ad	0.554	0.546	0.511	0.593	0.481	0.607	0.64	0.338	0.585	0.935	0.926	0.912	0.895	0.859	0.824	0.717	0.726	0.733	0.668
NCI-H2087	1.08	0.858	0.927	0.895	0.851	0.423	0.49	0.443	0.464	0.209	0.213	0.255	0.204	0.172	0.702	0.651	0.804	0.741	0.822
NCI-H1944	0.366	0.352	0.363	0.346	0.342	0.176	0.227	0.193	0.286	0.367	0.402	0.435	0.426	0.362	0.557	0.561	0.541	0.474	0.517
COR-L23	1.01	0.771	0.961	0.829	0.715	0.42	0.418	0.385	0.521	0.624	0.614	0.641	0.534	0.545	0.521	0.531	0.521	0.476	0.371
NCI-H727	0.324	0.316	0.364	0.286	0.371	0.518	1.28	0.632	0.673	–	0.426	0.397	0.435	0.403	–	1.15	1.31	1.16	1.06
HCC-78	0.26	0.221	0.211	0.21	0.193	0.606	0.664	0.389	0.567	0.602	0.793	0.646	–	0.736	0.372	0.433	0.429	–	0.431
UMC-11	1.08	0.917	0.893	0.729	0.442	0.281	0.301	0.298	0.412	0.728	0.749	0.786	0.643	0.519	0.388	0.415	0.423	0.391	0.264
NCI-H2023	0.254	0.225	0.248	0.207	0.265	0.387	0.409	0.348	0.408	0.568	0.635	0.468	0.497	0.518	0.725	0.676	0.675	0.502	0.718
